Laboratory results: PubChem BioAssay (NCI)
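Exposure lasted 48 hours, with cells grown in 96-well plates and compounds tested at five concentrations. The concentration for full growth arrest is given as TGI.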

Assays:
Assay in all cases: growth of human tumour cells (NCI), 48 h
786-0 renal = system: 786-0 renal
A498 renal = system: A498 renal
A549 NSCLC = system: A549 NSCLC
ACHN renal = system: ACHN renal
CAKI-1 renal = system: CAKI-1 renal
CCRF-CEM leukemia = system: CCRF-CEM leukemia
COLO 205 colon = system: COLO 205 colon
DLD-1 colon = system: DLD-1 colon
DMS 114 small cell lung = system: DMS 114 small cell lung
DMS 273 small cell lung = system: DMS 273 small cell lung
EKVX NSCLC = system: EKVX NSCLC
HCC-2998 colon = system: HCC-2998 colon
HCT-116 colon = system: HCT-116 colon
HCT-15 colon = system: HCT-15 colon
HL-60(TB) leukemia = system: HL-60(TB) leukemia
HOP-18 NSCLC = system: HOP-18 NSCLC
HOP-62 NSCLC = system: HOP-62 NSCLC
HOP-92 NSCLC = system: HOP-92 NSCLC
HT29 colon = system: HT29 colon
IGROV1 ovarian = system: IGROV1 ovarian
K-562 leukemia = system: K-562 leukemia
KM12 colon = system: KM12 colon
KM20L2 colon = system: KM20L2 colon
LOX IMVI melanoma = system: LOX IMVI melanoma
LXFL 529 NSCLC = system: LXFL 529 NSCLC
M14 melanoma = system: M14 melanoma
M19-MEL melanoma = system: M19-MEL melanoma
MALME-3M melanoma = system: MALME-3M melanoma
MOLT-4 leukemia = system: MOLT-4 leukemia
NCI-H23 lung = system: NCI-H23 lung
NCI-H460 lung = system: NCI-H460 lung
NCI-H522 lung = system: NCI-H522 lung
OVCAR-3 ovarian = system: OVCAR-3 ovarian
OVCAR-4 ovarian = system: OVCAR-4 ovarian
OVCAR-5 ovarian = system: OVCAR-5 ovarian
OVCAR-8 ovarian = system: OVCAR-8 ovarian
RPMI-8226 leukemia = system: RPMI-8226 leukemia
RXF 393 renal = system: RXF 393 renal
RXF-631 renal = system: RXF-631 renal
SF-268 CNS = system: SF-268 CNS
SF-295 CNS = system: SF-295 CNS
SF-539 CNS = system: SF-539 CNS
SK-MEL-2 melanoma = system: SK-MEL-2 melanoma
SK-MEL-28 melanoma = system: SK-MEL-28 melanoma
SK-MEL-5 melanoma = system: SK-MEL-5 melanoma
SK-OV-3 ovarian = system: SK-OV-3 ovarian
SN12C renal = system: SN12C renal
SNB-19 CNS = system: SNB-19 CNS
SNB-75 CNS = system: SNB-75 CNS
SNB-78 CNS = system: SNB-78 CNS
SR leukemia = system: SR leukemia
SW-620 colon = system: SW-620 colon
TK-10 renal = system: TK-10 renal
U251 CNS = system: U251 CNS
UACC-257 melanoma = system: UACC-257 melanoma
UACC-62 melanoma = system: UACC-62 melanoma
UO-31 renal = system: UO-31 renal
NCI-H226 lung = system: NCI-H226 lung
XF 498 CNS = system: XF 498 CNS

O=[N+]([O-])c1cc(/C=N\NS(=O)(=O)c2ccc(Cl)cc2)c(O)c([N+](=O)[O-])c1
TGI (786-0 renal): > 100 µM
TGI (A498 renal): 83 µM
TGI (A549 NSCLC): > 100 µM
TGI (ACHN renal): > 100 µM
TGI (CAKI-1 renal): > 100 µM
TGI (CCRF-CEM leukemia): 78.5 µM
TGI (COLO 205 colon): 31 µM
TGI (DLD-1 colon): > 100 µM
TGI (DMS 114 small cell lung): > 100 µM
TGI (DMS 273 small cell lung): 73.3 µM
TGI (EKVX NSCLC): > 100 µM
TGI (HCC-2998 colon): > 100 µM
TGI (HCT-116 colon): > 100 µM
TGI (HCT-15 colon): 53.1 µM
TGI (HL-60(TB) leukemia): 54 µM
TGI (HOP-18 NSCLC): > 100 µM
TGI (HOP-62 NSCLC): > 100 µM
TGI (HOP-92 NSCLC): > 100 µM
TGI (HT29 colon): 58.9 µM
TGI (IGROV1 ovarian): > 100 µM
TGI (K-562 leukemia): 79.5 µM
TGI (KM12 colon): 67.1 µM
TGI (KM20L2 colon): 74.1 µM
TGI (LOX IMVI melanoma): > 100 µM
TGI (LXFL 529 NSCLC): > 100 µM
TGI (M14 melanoma): 99.6 µM
TGI (M19-MEL melanoma): > 100 µM
TGI (MALME-3M melanoma): > 100 µM
TGI (MOLT-4 leukemia): 86 µM
TGI (NCI-H23 lung): 50.8 µM
TGI (NCI-H460 lung): 54.4 µM
TGI (NCI-H522 lung): 52.4 µM
TGI (OVCAR-3 ovarian): 54.1 µM
TGI (OVCAR-4 ovarian): > 100 µM
TGI (OVCAR-5 ovarian): > 100 µM
TGI (OVCAR-8 ovarian): 64.5 µM
TGI (RPMI-8226 leukemia): 80.9 µM
TGI (RXF 393 renal): 91.9 µM
TGI (RXF-631 renal): > 100 µM
TGI (SF-268 CNS): > 100 µM
TGI (SF-295 CNS): > 100 µM
TGI (SF-539 CNS): 44.2 µM
TGI (SK-MEL-2 melanoma): > 100 µM
TGI (SK-MEL-28 melanoma): > 100 µM
TGI (SK-MEL-5 melanoma): 66.6 µM
TGI (SK-OV-3 ovarian): 83.5 µM
TGI (SN12C renal): 87.4 µM
TGI (SNB-19 CNS): 79.5 µM
TGI (SNB-75 CNS): 73.5 µM
TGI (SNB-78 CNS): > 100 µM
TGI (SR leukemia): 45.2 µM
TGI (SW-620 colon): > 100 µM
TGI (TK-10 renal): > 100 µM
TGI (U251 CNS): 54.3 µM
TGI (UACC-257 melanoma): > 100 µM
TGI (UACC-62 melanoma): > 100 µM
TGI (UO-31 renal): > 100 µM

O=C(O)c1c2c(cc3c(=O)c4ccccc4[nH]c13)CCCC2
TGI (786-0 renal): > 100 µM
TGI (A549 NSCLC): > 100 µM
TGI (ACHN renal): > 100 µM
TGI (CCRF-CEM leukemia): > 100 µM
TGI (COLO 205 colon): > 100 µM
TGI (DMS 273 small cell lung): > 100 µM
TGI (EKVX NSCLC): > 100 µM
TGI (HCC-2998 colon): > 100 µM
TGI (HCT-116 colon): > 100 µM
TGI (HCT-15 colon): > 100 µM
TGI (HL-60(TB) leukemia): > 100 µM
TGI (HOP-18 NSCLC): > 100 µM
TGI (HOP-62 NSCLC): > 100 µM
TGI (HOP-92 NSCLC): > 100 µM
TGI (HT29 colon): > 100 µM
TGI (IGROV1 ovarian): > 100 µM
TGI (KM20L2 colon): > 100 µM
TGI (LOX IMVI melanoma): > 100 µM
TGI (LXFL 529 NSCLC): > 100 µM
TGI (M19-MEL melanoma): > 100 µM
TGI (MALME-3M melanoma): > 100 µM
TGI (MOLT-4 leukemia): > 100 µM
TGI (NCI-H226 lung): > 100 µM
TGI (NCI-H23 lung): > 100 µM
TGI (NCI-H460 lung): > 100 µM
TGI (OVCAR-3 ovarian): > 100 µM
TGI (OVCAR-5 ovarian): > 100 µM
TGI (OVCAR-8 ovarian): > 100 µM
TGI (RPMI-8226 leukemia): > 100 µM
TGI (RXF 393 renal): > 100 µM
TGI (RXF-631 renal): > 100 µM
TGI (SF-268 CNS): > 100 µM
TGI (SF-295 CNS): > 100 µM
TGI (SF-539 CNS): > 100 µM
TGI (SK-MEL-2 melanoma): > 100 µM
TGI (SK-MEL-28 melanoma): > 100 µM
TGI (SK-OV-3 ovarian): > 100 µM
TGI (SN12C renal): > 100 µM
TGI (SNB-19 CNS): > 100 µM
TGI (SNB-75 CNS): > 100 µM
TGI (SNB-78 CNS): > 100 µM
TGI (SR leukemia): > 100 µM
TGI (SW-620 colon): > 100 µM
TGI (TK-10 renal): > 100 µM
TGI (UACC-257 melanoma): > 100 µM
TGI (UACC-62 melanoma): > 100 µM
TGI (UO-31 renal): > 100 µM
TGI (XF 498 CNS): > 100 µM
